The source of these data is patent publication US9512074B2, “Radiolabeled inhibitors of the amino acid transporters ASCT1 and ASCT2” (The University of Montana, priority 2011, dated 2016).

The target of one assay is T1, murine ASCT2 (Mus musculus, UniProt P51912).
T1 construct: expressed in transfected cells; host or cells: Xenopus laevis oocytes (cRNA microinjection)
T1 sequence (P51912 1-553): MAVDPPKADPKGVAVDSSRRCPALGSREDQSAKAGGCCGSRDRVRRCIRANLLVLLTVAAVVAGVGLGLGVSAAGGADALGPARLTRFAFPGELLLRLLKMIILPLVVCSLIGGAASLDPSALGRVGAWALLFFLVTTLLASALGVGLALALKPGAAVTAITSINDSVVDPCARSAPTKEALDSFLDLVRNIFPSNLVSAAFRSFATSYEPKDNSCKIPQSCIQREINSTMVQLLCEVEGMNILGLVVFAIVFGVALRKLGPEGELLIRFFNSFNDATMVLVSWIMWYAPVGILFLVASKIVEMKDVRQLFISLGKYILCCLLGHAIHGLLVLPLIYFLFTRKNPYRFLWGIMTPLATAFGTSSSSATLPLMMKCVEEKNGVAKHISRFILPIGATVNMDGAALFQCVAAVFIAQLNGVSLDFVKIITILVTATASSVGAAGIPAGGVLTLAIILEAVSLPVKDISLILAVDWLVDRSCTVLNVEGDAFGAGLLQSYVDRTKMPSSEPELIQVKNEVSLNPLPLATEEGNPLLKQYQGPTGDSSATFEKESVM
The assay is described as follows: Inhibition of anion leak current, two-electrode voltage clamp in Xenopus oocytes expressing mouse ASCT2. In kind it is cell-based. The conditions noted are these: for Ki: Xenopus oocytes expressing mouse ASCT2, held at −20 mV, * = actual Ki, others Ki estimates. The procedure:
(§1) Human ASCT1 and murine ASCT2 cRNA were microinjected in stage V-VI oocytes. Uncoupled anion currents associated with the transport of substrate were recorded 3-5 days later as previously described (Zerangue & Kavanaugh, 1996). Recording solution contained 50 mM NaCl, 50 mM NaSCN, 2 mM KCl, 1 mM MgCl2, 1.8 mM CaCl2, and 5 mM HEPES (pH 7.4). Using two-electrode voltage clamp (TEVC), oocytes were held at −20 mV. Microelectrodes were filled with 3M KCl and had resistances from 1 to 3 MΩ. Recordings were performed at 22° C. with a Geneclamp 500 amplifier connected to a PowerLab 2/26 (AD instruments). The digital output was interfaced to a MacBook Pro (Macintosh) using Chart v7.1.2 software. The currents were low-pass filtered at 10 Hz and acquired at 20 Hz. Data was analyzed offline and modeling and fitting of substrate concentration-dependence of the currents was performed with Kaleidagraph software (v 4.04). The concentration dependent percent block of the anion leak or substrate activation of the anion current were fit with the Michaelis-Menten equation (Ianion=Imax×[Drug]/(Km+[Drug])) to define the Ki of inhibition or the apparent affinity (Km) of transport, respectively.

In another assay the target is T2, Human ASCT1 (Homo sapiens, UniProt P43007).
T2 construct: expressed in transfected cells; host or cells: Xenopus laevis oocytes (cRNA microinjection)
T2 sequence (P43007 1-532): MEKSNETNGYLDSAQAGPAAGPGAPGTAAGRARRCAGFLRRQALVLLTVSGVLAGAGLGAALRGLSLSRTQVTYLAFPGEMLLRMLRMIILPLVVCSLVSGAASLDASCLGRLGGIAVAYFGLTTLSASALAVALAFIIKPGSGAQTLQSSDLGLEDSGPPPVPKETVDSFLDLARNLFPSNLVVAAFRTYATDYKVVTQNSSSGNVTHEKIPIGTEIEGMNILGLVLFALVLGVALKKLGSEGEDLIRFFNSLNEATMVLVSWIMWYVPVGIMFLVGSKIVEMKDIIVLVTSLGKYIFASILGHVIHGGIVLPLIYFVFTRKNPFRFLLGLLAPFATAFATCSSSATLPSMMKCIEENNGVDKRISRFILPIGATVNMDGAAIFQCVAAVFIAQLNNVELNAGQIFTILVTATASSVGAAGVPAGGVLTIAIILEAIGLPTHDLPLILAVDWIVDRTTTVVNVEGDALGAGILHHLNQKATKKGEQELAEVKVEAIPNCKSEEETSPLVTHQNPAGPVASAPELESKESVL
The assay is described as follows: Inhibition of anion leak current, two-electrode voltage clamp in Xenopus oocytes expressing human ASCT1. The assay is classed as cell-based. The conditions noted are these: for Ki: Xenopus oocytes expressing human ASCT1, held at −20 mV, * = actual Ki, others Ki estimates, read-out: Ki (μM) ACST1. The procedure:
as §1

[1] abbreviates: 300 μM, −20 mV, opposite the current induced by substrate.

Bounds are passed on as bounds.

Take `O=C(O)[C@H]1NC[C@@H](Oc2ccccc2)C1O` (stereo in doubt) [CSE118, (2S,3S,4R)-3-hydroxy-4-phenoxy-proline]: the values for the Ki at murine ASCT2 and at Human ASCT1 were 141 µM and 150 µM, respectively.
Regarding `C[C@]1(O)CN[C@H](C(=O)O)C1` [CSE95, cis-4-methyl-trans-4-hydroxy-L-proline], the Ki (as a rule, the equilibrium dissociation constant of an inhibitor or competing ligand from its target) on murine ASCT2 was 926 µM; at Human ASCT1, more than 500 µM.
As for `C[C@@]1(O)CN[C@H](C(=O)O)C1` [CSE96, cis-4-hydroxy-trans-4-methyl-L-proline], the figures for the Ki on murine ASCT2 and on Human ASCT1 were 1080 µM and more than 500 µM, respectively.
The like results for `O=C(O)[C@H]1NC[C@H](O)[C@H]1c1ccccc1` [CSE103, (2S,3S,4R)-3-phenyl-4-hydroxy-proline] were, in that order, 1130 µM and 332 µM.
For the compound `O=C(O)[C@H]1NC[C@@H](c2ccccc2)[C@@H]1O` [CSE104, (2S,3S,4R)-3-hydroxy-4-phenyl-proline], the Ki at murine ASCT2 and on Human ASCT1 was more than 500 µM in each case.
Regarding `C[C@H]1[C@@H](C(=O)O)NC[C@@H]1O` [CSE109], the Ki at murine ASCT2 was 922 µM; on Human ASCT1, 564 µM.
On to `C[C@@H]1CN[C@H](C(=O)O)[C@H]1O` [CSE110], for which the inhibition constant (Ki) is 1150 µM at murine ASCT2 and 1050 µM on Human ASCT1.
Regarding `O=C(O)[C@@H]1C[C@H](O)CN1` [CSE111], the Ki was 872 µM at murine ASCT2 and 805 µM on Human ASCT1.
Regarding `O=C(O)[C@H]1NC[C@H](OCc2ccccc2)[C@H]1O` [CSE113, cis-3-hydroxy-trans-4-benzyloxy-L-proline], the values for the Ki at murine ASCT2 and at Human ASCT1 were 828 µM and 493 µM, respectively.
Turning to `CO[C@@H]1CN[C@H](C(=O)O)[C@H]1O` [CSE115, trans-3-hydroxy-cis-4-methoxy-L-proline], the values for the Ki on murine ASCT2 and on Human ASCT1 were 235 µM and 214 µM, respectively.
In the case of `O=C(O)[C@H]1NC[C@H](O)[C@H]1Oc1ccccc1` [CSE117, (2S,3S,4S)-3-phenoxy-4-hydroxy-proline], the results for the Ki at murine ASCT2 and at Human ASCT1 were 502 µM and 594 µM, respectively.
Turning to `O=C(O)[C@H]1NC[C@@H](OCc2ccccc2)[C@@H]1O` [CSE121, trans-3-hydroxy-cis-4-benzyloxy-L-proline], the “block of leak current in mASCT2 (FIG. 4)” value at murine ASCT2 (setting [1]) was “blocking a leak current”. Besides, the figures for the Ki at murine ASCT2 and on Human ASCT1 were 69 µM and 39 µM, respectively.
`CC(C)O[C@@H]1CN[C@H](C(=O)O)[C@H]1O` [CSE122]: the Ki was 268 µM at murine ASCT2 and 237 µM at Human ASCT1. Also, the “block of leak current in hASCT1 (FIG. 4)” value on Human ASCT1 (setting [1]) is on record as “blocking a leak current”.
Regarding `CO[C@H]1CN[C@H](C(=O)O)[C@@H]1O` [CSE124], the Ki on murine ASCT2 was 600 µM; at Human ASCT1 it was 481 µM.
`CC(C)O[C@H]1CN[C@H](C(=O)O)[C@@H]1O` [CSE127, cis-3-hydroxy-trans-4-isopropoxy-L-proline]: the Ki on murine ASCT2 and on Human ASCT1 was more than 500 µM each time.
Regarding `O=C(O)[C@H]1NC[C@@H](OCc2cccc(Oc3ccccc3)c2)[C@@H]1O` [CSE130], the Ki is 10 µM at murine ASCT2 and 13 µM at Human ASCT1.
`O=C(O)[C@H]1NC[C@@H](OCc2ccc(-c3ccccc3)cc2)[C@@H]1O` [CSE131, (2S,3R,4R)-3-hydroxy-4-o-methyl-p-biphenyl-proline]: the figures for the Ki at murine ASCT2 and at Human ASCT1 were 0.24 µM and 0.31 µM, respectively.
Regarding `O=C(O)[C@H]1NC[C@@H](OCc2cccc3ccccc23)[C@@H]1O` [CSE132], the Ki on murine ASCT2 and on Human ASCT1 was approximately 10 µM each time.
